# Reference: patent publication US20120253078A1, “Agent for Improving Carcass Performance in Finishing Hogs” (IGENE BIOTECHNOLOGY, INC., priority 2007, published 2012)
# Key:
# [1] = cited from earlier work
# [2] = Carcass characteristics and loin eye color of finishing pigs fed astaxanthin; type: in vivo, pigs (barrows, PIC TR4×C22 cross); details: for Loin eye area / Loin eye color CIE L* / Loin eye color CIE a* / Loin eye color CIE b*: 10th rib; for Loin eye area / Backfat-1st rib / Backfat-10th rib / Backfat-Last Lumbar / Backfat-Last rib: 24-h postmortem; for Loin eye color CIE L* / Loin eye color CIE a* / Loin eye color CIE b*: 30 minutes bloom time
# Protocol: (§1) Forty-eight barrows (PIC, TR4×C22 cross) averaging 215 lb were used in the study. Pigs were blocked by weight and randomly allotted to one of the four dietary treatments with two pigs per pen and six pens per treatment. Experimental diets were provided in meal form and astaxanthin (0, 5, 10 and 20 ppm) was added to the control diet at the expense of corn starch to achieve the dietary treatments (Table 1). In Table 1, CP is crude protein; P is […]; ME is metabolizable energy; and TID is true ileal digestible. Pigs and feeders were weighed on day (d) 0, 7, 14, 21 and 26 to determine the growth performance criteria of average daily gain (ADG), average daily food intake (ADFI), and feed conversion (F/G).
# On d 27, one pig per pen was transported to the KSU meats lab for humane slaughter and collection of carcass data. Hot carcass weight was collected immediately after evisceration. First-rib, tenth-rib, last-rib, and last-lumbar backfat depth, as well as loin eye area at the 10th-rib, were collected from the right half of each carcass 24-h postmortem. Additionally, each carcass was evaluated for loin muscle color at the 10th-rib with a Hunter MiniScan instrument to measure CIE L*, a* and b*, known color parameters relating to brightness, red-to-green coloration and yellow-to-blue coloration, as known in the art. That was performed after 30 minutes of bloom time, the time to oxygenate myoglobin thereby obtaining maximal pink or red coloration, for each loin muscle surface.
# (§2) Data were analyzed as a randomized complete block design using the PROC MIXED procedure of SAS with pen as the experimental unit. Linear and quadratic polynomial contrasts were used to determine the effect of increasing astaxanthin.
# (§3) The source of natural astaxanthin used in the example was Phaffia rhodozyma which is commercially available under the trade name Aquasta® containing 10,000 ppm astaxanthin, by weight.
# [3] = 5 ppm astaxanthin in the feed; cited from earlier work
# [4] = Growth performance of finishing pigs fed increasing levels of astaxanthin (d 0 to 26); type: in vivo, pigs (barrows, PIC TR4×C22 cross); details: for ADFI / ADG / F/G / Final Wt.: d 0 to 26
# Protocol: Procedures used in the experiment were approved by the Kansas State University Animal Care and Use Committee. The project was conducted at the KSU Swine Teaching and Research Farm. Pigs were housed in an environmentally regulated finishing building with pens over a totally slatted floor that provided approximately 8 ft^2 per pig. Each pen was equipped with a dry self-feeder and one nipple waterer, thereby providing ad libitum access to feed and water. The facility was a mechanically ventilated room with a pull-plug manure storage pit.
# as §1, §2, §3
# [5] = 5 ppm astaxanthin in diet for 26 d
# [6] = 5 ppm astaxanthin in diet for 26 d before slaughter
# [7] = 10 ppm astaxanthin in diet for 26 d
# [8] = 10 ppm astaxanthin in diet for 26 d before slaughter
# [9] = 20 ppm astaxanthin in diet for 26 d
# [10] = 20 ppm astaxanthin in diet for 26 d before slaughter
# [11] = astaxanthin 5, 10, 20 ppm in diet
structure (smiles),measurement,setting,value
"CC1=C(/C=C/C(C)=C/C=C/C(C)=C/C=C/C=C(C)/C=C/C=C(C)/C=C/C2=C(C)C(=O)C(O)CC2(C)C)C(C)(C)CC(O)C1=O (stereo not drawn) [Astaxanthin, 3,3′-dihydroxy-β,β-carotene-4,4′dione]",effect on production performance,"[1]; 0, 1.5 and 3.0 ppm astaxanthin in the diet",no significant effect
same,"effect on dressing percentage, backfat thickness and loin muscle area","[1]; with increasing dietary astaxanthin level (0, 1.5, 3.0 ppm)",linear effect
same,"percent fat-free lean (PFFL), comparison of doses","[2]; 5 or 10 ppm astaxanthin versus 0 or 20 ppm, p<0.10",greatest percent fat-free lean
same,Loin eye area,[2]; [5],7.72 sq. in.
same,Loin eye color CIE L*,[2]; [5],55.3
same,Loin eye color CIE a*,[2]; [5],10.1
same,Loin eye color CIE b*,[2]; [5],14.8
same,Backfat-1st rib,[2]; [5],1.40 in.
same,Backfat-10th rib,[2]; [5],0.65 in.
same,Backfat-Last Lumbar,[2]; [5],0.60 in.
same,Backfat-Last rib,[2]; [5],0.65 in.
same,Fat-Free Lean,[2]; [6],55.6%
same,Hot Carcass Wt.,[2]; [6],192 lb
same,Live Wt.,[2]; [6],273 lb
same,Standardized Fat-Free Lean,[2]; [6],107 lb
same,Yield,[2]; [6],70.6%
same,Loin eye area,[2]; [7],7.58 sq. in.
same,Loin eye color CIE L*,[2]; [7],58.9
same,Loin eye color CIE a*,[2]; [7],8.2
same,Loin eye color CIE b*,[2]; [7],14.4
same,Backfat-1st rib,[2]; [7],1.33 in.
same,Backfat-10th rib,[2]; [7],0.65 in.
same,Backfat-Last Lumbar,[2]; [7],0.56 in.
same,Backfat-Last rib,[2]; [7],0.67 in.
same,Fat-Free Lean,[2]; [8],55.5%
same,Hot Carcass Wt.,[2]; [8],191 lb
same,Live Wt.,[2]; [8],271 lb
same,Standardized Fat-Free Lean,[2]; [8],106 lb
same,Yield,[2]; [8],70.6%
same,Loin eye area,[2]; [9],7.28 sq. in.
same,Loin eye color CIE L*,[2]; [9],56.2
same,Loin eye color CIE a*,[2]; [9],10.3
same,Loin eye color CIE b*,[2]; [9],15.1
same,Backfat-1st rib,[2]; [9],1.41 in.
same,Backfat-10th rib,[2]; [9],0.70 in.
same,Backfat-Last Lumbar,[2]; [9],0.57 in.
same,Backfat-Last rib,[2]; [9],0.64 in.
same,Fat-Free Lean,[2]; [10],54.5%
same,Hot Carcass Wt.,[2]; [10],189 lb
same,Live Wt.,[2]; [10],270 lb
same,Standardized Fat-Free Lean,[2]; [10],103 lb
same,Yield,[2]; [10],70.3%
same,"carcass traits and meat quality, benefit over lower doses","[2]; 20 ppm astaxanthin in the diet, optimum 5 to 10 ppm",no additional benefit
same,"backfat depth measured at the first rib, tenth rib and last rib, versus control","[2]; pigs fed astaxanthin, p<0.10",less backfat depth
same,"performance of sows (stillborn in the litter, parity)",[3],improved performance of sows
same,ADFI,[4]; 5 ppm astaxanthin in diet,6.76 lb
same,ADG,[4]; 5 ppm astaxanthin in diet,2.23 lb
same,F/G,[4]; 5 ppm astaxanthin in diet,3.05
same,Final Wt.,[4]; 5 ppm astaxanthin in diet,273 lb
same,ADFI,[4]; 10 ppm astaxanthin in diet,6.24 lb
same,ADG,[4]; 10 ppm astaxanthin in diet,2.03 lb
same,F/G,[4]; 10 ppm astaxanthin in diet,3.08
same,Final Wt.,[4]; 10 ppm astaxanthin in diet,268 lb
same,ADFI,[4]; 20 ppm astaxanthin in diet,6.20 lb
same,ADG,[4]; 20 ppm astaxanthin in diet,1.99 lb
same,F/G,[4]; 20 ppm astaxanthin in diet,3.16
same,Final Wt.,[4]; 20 ppm astaxanthin in diet,267 lb
same,ADG versus control pigs,[4]; [11],not significantly different
same,F/G versus control pigs,[4]; [11],not significantly different
same,"average daily feed intake, trend","[4]; with increasing level of astaxanthin (0, 5, 10, 20 ppm)",tended to decrease
